Data reported in US20260325533A1, “CDK INHIBITOR COMPOUNDS” (ALEKSIA THERAPEUTICS, INC., priority 2023, published 2026).
Read-outs that look alike come from different tables or passages of the source.

Key:
Assay type in all cases: biochemical
CDK4/CCND3 = CDK4/CCND3 (Homo sapiens, UniProt P11802); assay: CDK4 homogeneous time-resolved fluorescence (HTRF) kinase assay; conditions: CDK4/CCND
Summary of the method: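 TR-FRET read (665 nm, or 665/615 ratio) of 4E-BP1 Thr37/46 phosphorylation by 1.5 nM CDK4/CCND3 at 1 mM ATP, 50 nM ULight peptide, 1% DMSO. Reaction ran 60 min at 23 °C after 20 min compound–enzyme preincubation. IC50 from 11-point half-log dilutions, top 10 μM.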

CDK1/CCNB1 = CDK1/CCNB1 (Homo sapiens, UniProt P06493); assay: CDK1 homogeneous time-resolved fluorescence (HTRF) kinase assay; conditions: CDK1/CCNB
CDK1/CCNB1, sequence (P06493 whole entry): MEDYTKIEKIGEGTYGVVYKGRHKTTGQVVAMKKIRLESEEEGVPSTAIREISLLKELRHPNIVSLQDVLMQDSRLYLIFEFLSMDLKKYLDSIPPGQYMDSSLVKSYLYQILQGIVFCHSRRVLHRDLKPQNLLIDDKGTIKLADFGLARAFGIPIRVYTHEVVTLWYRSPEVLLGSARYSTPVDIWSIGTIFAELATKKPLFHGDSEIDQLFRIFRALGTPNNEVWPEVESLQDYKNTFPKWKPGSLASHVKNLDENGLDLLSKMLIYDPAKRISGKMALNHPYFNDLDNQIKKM
CDK1/CCNB1, sequence (P14635 whole entry partner): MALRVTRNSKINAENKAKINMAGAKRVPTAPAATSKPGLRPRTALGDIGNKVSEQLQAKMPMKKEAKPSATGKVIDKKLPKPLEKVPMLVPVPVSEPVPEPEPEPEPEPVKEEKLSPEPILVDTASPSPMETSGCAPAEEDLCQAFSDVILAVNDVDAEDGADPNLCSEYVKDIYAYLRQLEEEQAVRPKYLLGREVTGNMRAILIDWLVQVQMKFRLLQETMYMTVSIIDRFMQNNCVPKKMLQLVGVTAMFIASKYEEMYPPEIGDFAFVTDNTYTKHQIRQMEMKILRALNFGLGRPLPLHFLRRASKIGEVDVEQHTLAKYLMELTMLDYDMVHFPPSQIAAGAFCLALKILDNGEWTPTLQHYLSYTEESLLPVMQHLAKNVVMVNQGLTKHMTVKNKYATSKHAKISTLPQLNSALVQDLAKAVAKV
Summary of the method: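 Read-out: TR-FRET (Eu anti-phospho-4E-BP1 Thr37/46 antibody, 2 nM; 665 nm or 665/615 ratio) after 60 min phosphorylation of 50 nM ULight-peptide by 0.5 nM CDK1/CCNB1 at 1 mM ATP, 23 °C. Compound preincubated 20 min with enzyme; 1% DMSO.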

CDK2/CCNE1 = CDK2/CCNE1 (Homo sapiens, UniProt P24941); assay: CDK2 homogeneous time-resolved fluorescence (HTRF) kinase assay; conditions: CDK2/CCNE
Summary of the method: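 An HTRF format measures CDK2/CCNE1 (3 nM) phosphorylating a 4E-BP1 Thr37/46 peptide at high (1 mM) ATP. Reactions run one hour at 23 °C, then EDTA-quenched and probed with Eu-labelled phospho-specific antibody.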

CDK6/CCND1 = CDK6/CCND1 (Homo sapiens, UniProt Q00534); assay: CDK6 homogeneous time-resolved fluorescence (HTRF) kinase assay; conditions: CDK6/CCND
CDK6/CCND1, sequence (Q00534 whole entry): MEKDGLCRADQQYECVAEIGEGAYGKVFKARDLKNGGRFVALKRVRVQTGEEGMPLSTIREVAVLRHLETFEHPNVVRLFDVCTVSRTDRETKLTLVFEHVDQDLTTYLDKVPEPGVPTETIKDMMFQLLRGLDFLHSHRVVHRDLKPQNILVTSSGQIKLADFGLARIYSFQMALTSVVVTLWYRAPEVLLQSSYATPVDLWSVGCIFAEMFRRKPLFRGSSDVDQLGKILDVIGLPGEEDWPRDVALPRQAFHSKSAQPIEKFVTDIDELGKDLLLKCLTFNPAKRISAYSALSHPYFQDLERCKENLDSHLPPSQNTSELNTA
CDK6/CCND1, sequence (P24385 whole entry partner): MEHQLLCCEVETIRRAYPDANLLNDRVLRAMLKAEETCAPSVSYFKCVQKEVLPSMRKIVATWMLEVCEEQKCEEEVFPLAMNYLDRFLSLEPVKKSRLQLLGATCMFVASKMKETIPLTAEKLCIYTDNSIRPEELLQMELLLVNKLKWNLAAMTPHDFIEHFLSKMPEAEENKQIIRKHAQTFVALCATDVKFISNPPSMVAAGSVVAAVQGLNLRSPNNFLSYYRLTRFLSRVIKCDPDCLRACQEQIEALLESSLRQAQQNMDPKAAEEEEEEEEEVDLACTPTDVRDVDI
Summary of the method: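 Assay conditions: HEPES buffer containing 10 mM MgCl2, 1 mM EGTA, 2 mM DTT, 0.01% Tween 20; 1 nM CDK6/CCND1, 50 nM peptide substrate, 1 mM ATP. Detection after 60 min reaction used 2 nM europium antibody with 340 nm excitation. Potency fitted from half-log series, 11 points.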

[1] = >250 nM, read-out: CDK4/CCND IC50, >250 nM
[2] = >250 nM, read-out: CDK1/CCNB IC50 >250 nM
[3] = 25-250 nM, read-out: CDK2/CCNE IC50, 25-250 nM
[4] = >250 nM, 1 mM ATP, read-out: CDK6/CCND IC50, >250 nM
[5] = x = IC50 25-250 nM, read-out: CDK4/CCND IC50 (25-250 nM)
[6] = x = IC50 25-250 nM, read-out: CDK1/CCNB IC50 (25-250 nM)
[7] = x = IC50 <25 nM, read-out: CDK2/CCNE IC50 (<25 nM)
[8] = x = IC50 >250 nM, read-out: CDK6/CCND IC50 (>250 nM column)
[9] = 25-250 nM marked x, read-out: CDK4/CCND IC50 25-250 nM
[10] = 25-250 nM marked x, read-out: CDK1/CCNB IC50 25-250 nM
[11] = <25 nM, read-out: CDK2/CCNE IC50 <25 nM
[12] = >250 nM marked x, read-out: CDK6/CCND IC50 >250 nM
[13] = 25-250 nM, read-out: CDK4/CCND IC50, 25-250 nM
[14] = <25 nM, read-out: CDK2/CCNE IC50, <25 nM
[15] = 25-250 nM, 1 mM ATP, read-out: CDK6/CCND IC50, 25-250 nM
[16] = x = IC50 >250 nM, read-out: CDK4/CCND IC50 (>250 nM column)
[17] = x = IC50 25-250 nM, read-out: CDK6/CCND IC50 (25-250 nM)

CDK4/CCND3, sequence (P11802 whole entry): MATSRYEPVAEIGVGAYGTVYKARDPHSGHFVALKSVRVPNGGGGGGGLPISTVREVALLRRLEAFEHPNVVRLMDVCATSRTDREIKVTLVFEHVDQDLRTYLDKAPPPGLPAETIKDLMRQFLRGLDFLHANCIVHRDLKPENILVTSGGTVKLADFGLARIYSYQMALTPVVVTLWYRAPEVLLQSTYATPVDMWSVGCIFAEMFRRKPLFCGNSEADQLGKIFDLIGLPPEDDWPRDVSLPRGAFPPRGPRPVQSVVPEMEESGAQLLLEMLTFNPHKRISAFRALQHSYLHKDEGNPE
CDK4/CCND3, sequence (P30281 whole entry partner): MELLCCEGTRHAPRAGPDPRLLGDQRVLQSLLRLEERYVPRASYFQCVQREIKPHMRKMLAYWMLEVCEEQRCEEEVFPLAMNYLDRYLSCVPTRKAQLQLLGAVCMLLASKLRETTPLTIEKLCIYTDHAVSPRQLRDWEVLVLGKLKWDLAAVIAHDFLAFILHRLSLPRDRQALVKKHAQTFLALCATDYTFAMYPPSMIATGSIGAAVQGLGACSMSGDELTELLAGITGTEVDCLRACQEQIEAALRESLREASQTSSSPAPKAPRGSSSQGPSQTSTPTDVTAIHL

## CC#Cc1nccc2cnc(Nc3ccc(S(=O)(=O)Nc4nccc(C(F)(F)F)n4)cc3)cc12 [Ex 891, 4-((5-(prop-1-yn-1-yl)-2,6-naphthyridin-3-yl)amino)-N-(4-(trifluoromethyl)pyrimidin-2-yl)benzenesulfonamide]
CDK4/CCND3; [1]
  IC50: > 250 nM
CDK1/CCNB1; [2]
  IC50: > 250 nM
CDK2/CCNE1; [3]
  IC50: 25 to 250 nM
CDK6/CCND1; [4]
  IC50: > 250 nM

## Cc1c(-c2nccc3cnc(Nc4ccc(NS(=O)(=O)c5cc6ccccc6o5)cc4)cc23)ccc2c1cnn2CC(C)(C)O [Example 776, N-(4-((5-(1-(2-hydroxy-2-methylpropyl)-4-methyl-1H-indazol-5-yl)-2,6-naphthyridin-3-yl)amino)phenyl)benzofuran-2-sulfonamide]
CDK4/CCND3; [1]
  IC50: > 250 nM
CDK1/CCNB1; [2]
  IC50: > 250 nM
CDK2/CCNE1; [3]
  IC50: 25 to 250 nM
CDK6/CCND1; [4]
  IC50: > 250 nM

## CCS(=O)(=O)c1ccc(Nc2cc3c(C#Cc4ccc5c(c4)NC(=O)C5(C)C)nccc3cn2)cc1 [Ex 459, 6-((7-((4-(ethylsulfonyl)phenyl)amino)-2,6-naphthyridin-1-yl)ethynyl)-3,3-dimethylindolin-2-one]
CDK4/CCND3; [5]
  IC50: 25 to 250 nM
CDK1/CCNB1; [6]
  IC50: 25 to 250 nM
CDK2/CCNE1; [7]
  IC50: < 25 nM
CDK6/CCND1; [8]
  IC50: > 250 nM

## COCC1(COC)C(=O)Nc2cc(C#Cc3nccc4cnc(Nc5ccc(S(=N)(=O)C(C)C)cc5)cc34)ccc21 (single isomer, unassigned) [Example 321, 3,3-bis(methoxymethyl)-6-((7-((4-(propan-2-ylsulfonimidoyl)phenyl)amino)-2,6-naphthyridin-1-yl)ethynyl)indolin-2-one]
CDK4/CCND3; [9]
  IC50: 25 to 250 nM
CDK1/CCNB1; [10]
  IC50: 25 to 250 nM
CDK2/CCNE1; [11]
  IC50: < 25 nM
CDK6/CCND1; [12]
  IC50: > 250 nM

## COCc1cccc(-c2nccc3cnc(NC4CCN(S(C)(=O)=O)CC4)cc23)c1 [Ex 71, 5-(3-(methoxymethyl)phenyl)-N-(1-(methylsulfonyl)piperidin-4-yl)-2,6-naphthyridin-3-amine]
CDK4/CCND3; [9]
  IC50: 25 to 250 nM
CDK1/CCNB1; [10]
  IC50: 25 to 250 nM
CDK2/CCNE1; [11]
  IC50: < 25 nM
CDK6/CCND1; 25-250 nM marked x, read-out: CDK6/CCND IC50 25-250 nM
  IC50: 25 to 250 nM

## CC1(C)C(=O)Nc2cc(C#Cc3nccc4cnc(Nc5ccc(S(=N)(=O)NC6CCC6)cc5)cc34)ccc21 (single isomer, unassigned) [Ex 688, N-cyclobutyl-4-((5-((3,3-dimethyl-2-oxoindolin-6-yl)ethynyl)-2,6-naphthyridin-3-yl)amino)benzenesulfonimidamide]
CDK4/CCND3; [13]
  IC50: 25 to 250 nM
CDK1/CCNB1; [2]
  IC50: > 250 nM
CDK2/CCNE1; [14]
  IC50: < 25 nM
CDK6/CCND1; [15]
  IC50: 25 to 250 nM

## CS(=O)(=O)c1ccc(Nc2cc3c(C#CC45CCC(Cl)(CC4)CC5)nccc3cn2)cc1 (racemic) [Ex 944, 5-((4-chlorobicyclo[2.2.2]octan-1-yl)ethynyl)-N-(4-(methylsulfonyl)phenyl)-2,6-naphthyridin-3-amine]
CDK4/CCND3; [13]
  IC50: 25 to 250 nM
CDK1/CCNB1; [2]
  IC50: > 250 nM
CDK2/CCNE1; [14]
  IC50: < 25 nM
CDK6/CCND1; [4]
  IC50: > 250 nM

## O=C1Nc2cc(C#Cc3nccc4cnc(Nc5ccc(S(=O)(=O)C6CCC6)cc5)cc34)ccc2C12CC2 [Ex 394, 6'-((7-((4-(cyclobutylsulfonyl)phenyl)amino)-2,6-naphthyridin-1-yl)ethynyl)spiro[cyclopropane-1,3'-indolin]-2'-one]
CDK4/CCND3; [16]
  IC50: > 250 nM
CDK1/CCNB1; [6]
  IC50: 25 to 250 nM
CDK2/CCNE1; [7]
  IC50: < 25 nM
CDK6/CCND1; [8]
  IC50: > 250 nM

## C=CS(=O)(=O)c1ccc(Nc2cc3c(-c4ccc5[nH]ccc5c4)nccc3cn2)cc1 [Ex 185, 5-(1H-indol-5-yl)-N-(4-(vinylsulfonyl)phenyl)-2,6-naphthyridin-3-amine]
CDK4/CCND3; >250 nM marked x, read-out: CDK4/CCND IC50 >250 nM
  IC50: > 250 nM
CDK1/CCNB1; >250 nM marked x, read-out: CDK1/CCNB IC50 >250 nM
  IC50: > 250 nM
CDK2/CCNE1; 25-250 nM marked x, read-out: CDK2/CCNE IC50 25-250 nM
  IC50: 25 to 250 nM
CDK6/CCND1; [12]
  IC50: > 250 nM

## Cc1c(-c2nccc3cnc(Nc4ccc(NS(=O)(=O)c5cnn(C)c5)cc4)cc23)ccc2c1cnn2CC(C)(C)O [Ex 835, N-(4-((5-(1-(2-hydroxy-2-methylpropyl)-4-methyl-1H-indazol-5-yl)-2,6-naphthyridin-3-yl)amino)phenyl)-1-methyl-1H-pyrazole-4-sulfonamide]
CDK4/CCND3; [13]
  IC50: 25 to 250 nM
CDK1/CCNB1; 25-250 nM, read-out: CDK1/CCNB IC50, 25-250 nM
  IC50: 25 to 250 nM
CDK2/CCNE1; [14]
  IC50: < 25 nM
CDK6/CCND1; [15]
  IC50: 25 to 250 nM

## Cc1c(-c2nccc3cnc(Nc4ccc(S(=O)(=O)Nc5cccc(C(C)(C)O)n5)cc4)cc23)ccc2c1cnn2CC(O)(C(F)(F)F)C(F)(F)F [Ex 711, N-(6-(2-hydroxypropan-2-yl)pyridin-2-yl)-4-((5-(4-methyl-1-(3,3,3-trifluoro-2-hydroxy-2-(trifluoromethyl)propyl)-1H-indazol-5-yl)-2,6-naphthyridin-3-yl)amino)benzenesulfonamide]
CDK4/CCND3; [1]
  IC50: > 250 nM
CDK1/CCNB1; [2]
  IC50: > 250 nM
CDK2/CCNE1; [14]
  IC50: < 25 nM
CDK6/CCND1; [4]
  IC50: > 250 nM

## Cc1cc(C)cc(NS(=O)(=O)c2ccc(Nc3cc4c(-c5ccc6c(cnn6CC(C)(C)O)c5C)nccc4cn3)cc2)c1 [Ex 808, N-(3,5-dimethylphenyl)-4-((5-(1-(2-hydroxy-2-methylpropyl)-4-methyl-1H-indazol-5-yl)-2,6-naphthyridin-3-yl)amino)benzenesulfonamide]
CDK4/CCND3; [1]
  IC50: > 250 nM
CDK1/CCNB1; [2]
  IC50: > 250 nM
CDK2/CCNE1; [3]
  IC50: 25 to 250 nM
CDK6/CCND1; [4]
  IC50: > 250 nM

## CS(=O)(=O)N1CCC(Nc2cc3c(N4CCC(C#N)C4)nccc3cn2)CC1 (single isomer, unassigned) [Ex 115, 1-(7-((1-(methylsulfonyl)piperidin-4-yl)amino)-2,6-naphthyridin-1-yl)pyrrolidine-3-carbonitrile]
CDK4/CCND3; <25 nM, read-out: CDK4/CCND IC50 <25 nM
  IC50: < 25 nM
CDK1/CCNB1; [10]
  IC50: 25 to 250 nM
CDK2/CCNE1; [11]
  IC50: < 25 nM
CDK6/CCND1; <25 nM, read-out: CDK6/CCND IC50 <25 nM
  IC50: < 25 nM

## CCS(=N)(=O)c1ccc(Nc2cc3c(C#Cc4ccc5c(c4)NC(=O)C5(C)C)nccc3cn2)cc1 (single isomer, unassigned) [Ex 462, 6-((7-((4-(ethylsulfonimidoyl)phenyl)amino)-2,6-naphthyridin-1-yl)ethynyl)-3,3-dimethylindolin-2-one]
CDK4/CCND3; [5]
  IC50: 25 to 250 nM
CDK1/CCNB1; [6]
  IC50: 25 to 250 nM
CDK2/CCNE1; [7]
  IC50: < 25 nM
CDK6/CCND1; [17]
  IC50: 25 to 250 nM

## CC(O)CN1CCC(C#Cc2nccc3cnc(Nc4ccc(S(C)(=O)=O)cc4)cc23)CC1 (single isomer, unassigned) [Ex 607, 1-(4-((7-((4-(methylsulfonyl)phenyl)amino)-2,6-naphthyridin-1-yl)ethynyl)piperidin-1-yl)propan-2-ol]
CDK4/CCND3; [16]
  IC50: > 250 nM
CDK1/CCNB1; x = IC50 >250 nM, read-out: CDK1/CCNB IC50 (>250 nM column)
  IC50: > 250 nM
CDK2/CCNE1; [7]
  IC50: < 25 nM
CDK6/CCND1; [17]
  IC50: 25 to 250 nM

## Cc1c(-c2nccc3cnc(Nc4ccc(NS(=O)(=O)c5ncccn5)cc4)cc23)ccc2c1cnn2CC(C)(C)O [Example 705, N-(4-((5-(1-(2-hydroxy-2-methylpropyl)-4-methyl-1H-indazol-5-yl)-2,6-naphthyridin-3-yl)amino)phenyl)pyrimidine-2-sulfonamide]
CDK4/CCND3; [13]
  IC50: 25 to 250 nM
CDK1/CCNB1; [2]
  IC50: > 250 nM
CDK2/CCNE1; [14]
  IC50: < 25 nM
CDK6/CCND1; [15]
  IC50: 25 to 250 nM

## Cc1c(-c2nccc3cnc(Nc4ccc(NS(=O)(=O)c5cccc(N6CCNCC6)c5)cc4)cc23)ccc2c1cnn2CC(C)(C)O [Example 752, N-(4-((5-(1-(2-hydroxy-2-methylpropyl)-4-methyl-1H-indazol-5-yl)-2,6-naphthyridin-3-yl)amino)phenyl)-3-(piperazin-1-yl)benzenesulfonamide]
CDK4/CCND3; [1]
  IC50: > 250 nM
CDK1/CCNB1; [2]
  IC50: > 250 nM
CDK2/CCNE1; [14]
  IC50: < 25 nM
CDK6/CCND1; [4]
  IC50: > 250 nM
